How the values were obtained:
[1] = test system: HCV replicon (Renilla luciferase reporter) in HUH-7 cells; test: HCV replicon luciferase reporter assay; type: cell-based, Hepatitis C virus (strain 1b); details: Huh-7, 96 h, 4 days
Text: An HCV replicon whole cell system was established as described by Lohmann V, Komer F, Koch J, Herian U, Theilmann L, Bartenschlager R., Science 285(5424):110-3 (1999). This system enabled us to evaluate the effects of our HCV Protease compounds on HCV RNA replication. Briefly, using the HCV strain 1b sequence described in the Lohmann paper (Assession number: AJ238799), an HCV cDNA was synthesized by Operon Technologies, Inc. (Alameda, Calif.), and the full-length replicon was then assembled in plasmid pGem9zf(+) (Promega, Madison, Wis.) using standard molecular biology techniques. The replicon consists of (i) the HCV 5′ UTR fused to the first 12 amino acids of the capsid protein, (ii) the neomycin phosphotransferase gene (neo), (iii) the IRES from encephalomyocarditis virus (EMCV), and (iv) HCV NS3 to NS5B genes and the HCV 3′ UTR. […]
As a secondary assay, EC50 determinations from the replicon FRET assay were confirmed in a replicon luciferase reporter assay. […] Following 4 days in a 37° C./5% CO2 incubator, cells were analyzed for Renilla Luciferase activity using the Promega Dual-Glo Luciferase Assay System. […] Plates were read on a Packard TopCount NXT using a luminescence program.
The percentage inhibition was calculated using the formula below: […]
The values were graphed and analyzed using XLfit to obtain the EC50 value.

[2] = molecular target: T1, human neutrophil elastase (HNE) (Homo sapiens, UniProt P08246); test: Specificity assay, neutrophil elastase; type: biochemical; details: read-out: HLE activity in the specificity assays
T1 construct: purchased Sigma or EMDbiosciences
T1 sequence (P08246 30-267): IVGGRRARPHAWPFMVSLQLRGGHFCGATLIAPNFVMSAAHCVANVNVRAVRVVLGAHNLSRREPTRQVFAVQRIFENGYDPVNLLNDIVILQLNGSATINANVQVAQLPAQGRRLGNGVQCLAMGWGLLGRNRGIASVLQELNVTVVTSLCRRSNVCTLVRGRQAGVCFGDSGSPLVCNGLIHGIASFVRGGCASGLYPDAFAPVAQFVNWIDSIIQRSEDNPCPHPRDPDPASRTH
Procedure: The specificities of compounds of the present disclosure were determined against a variety of serine proteases: human neutrophil elastase (HNE), porcine pancreatic elastase (PPE) and human pancreatic chymotrypsin and one cysteine protease: human liver cathepsin B. In all cases, a 96-well plate format protocol using colorimetric p-nitroaniline (pNA) substrate or fluorometric Amino-Methyl-Coumarin (AMC) substrate, specific for each enzyme was used as described previously (PCT Patent Application No. WO 00/09543) with some modifications. All enzymes were purchased from Sigma or EMDbiosciences while the substrates were from Bachem.
Each pNA assay included a 2 h enzyme-inhibitor pre-incubation at room temperature followed by addition of substrate and hydrolysis to ˜15% conversion as measured on a Spectramax Pro microplate reader. The cathepsin B assay was initiated by adding substrate to a 10 min enzyme-inhibitor pre-incubation at room temperature, and the assay plate measured immediately using the Cytofluor Series 4000. Compound concentrations varied from 100 to 0.4 μM depending on their potency.
The final conditions for each assay were as follows: […]
The percentage of inhibition was calculated using the formula: [1−((UVinh−UVblank)/(UVctl−UVblank))]×100 […]

What does the source list for `CC(C)(C)OC(=O)N[C@H]1CCCCC/C=C\[C@@H]2C[C@@]2(C(=O)NS(=O)(=O)C2CC2)NC(=O)[C@@H]2C[C@@H](OC(=O)c3ccc(C#N)cc3)CN2C1=O` [Compound 26, 18-(4-cyanobenzoyloxy)-14-tert-butoxycarbonylamino-4-cyclopropylsulfonylaminocarbonyl-2,15-dioxo-3,16-diazatricyclo-[14.3.0.0^4,6]-nonadec-7-ene]?
EC50 [1]: 4.3 nM; IC50 [2]: > 100 µM

Reference: US7772183B2 (Bristol-Myers Squibb Company, priority 2005, dated 2010)
